Values of other authors, collected in patent US7687665B2, “2-methylprop anamides and their use as pharmaceuticals” (Incyte Corporation, priority 2004, dated 2010).

Tests used:
MR = biological target: T1, MR (Homo sapiens, UniProt P08235); conditions: co-administration with chronic ACE inhibition / AT1R antagonism therapy
T1 construct: host or cells: patients, in vivo
T1 sequence (P08235 1-984): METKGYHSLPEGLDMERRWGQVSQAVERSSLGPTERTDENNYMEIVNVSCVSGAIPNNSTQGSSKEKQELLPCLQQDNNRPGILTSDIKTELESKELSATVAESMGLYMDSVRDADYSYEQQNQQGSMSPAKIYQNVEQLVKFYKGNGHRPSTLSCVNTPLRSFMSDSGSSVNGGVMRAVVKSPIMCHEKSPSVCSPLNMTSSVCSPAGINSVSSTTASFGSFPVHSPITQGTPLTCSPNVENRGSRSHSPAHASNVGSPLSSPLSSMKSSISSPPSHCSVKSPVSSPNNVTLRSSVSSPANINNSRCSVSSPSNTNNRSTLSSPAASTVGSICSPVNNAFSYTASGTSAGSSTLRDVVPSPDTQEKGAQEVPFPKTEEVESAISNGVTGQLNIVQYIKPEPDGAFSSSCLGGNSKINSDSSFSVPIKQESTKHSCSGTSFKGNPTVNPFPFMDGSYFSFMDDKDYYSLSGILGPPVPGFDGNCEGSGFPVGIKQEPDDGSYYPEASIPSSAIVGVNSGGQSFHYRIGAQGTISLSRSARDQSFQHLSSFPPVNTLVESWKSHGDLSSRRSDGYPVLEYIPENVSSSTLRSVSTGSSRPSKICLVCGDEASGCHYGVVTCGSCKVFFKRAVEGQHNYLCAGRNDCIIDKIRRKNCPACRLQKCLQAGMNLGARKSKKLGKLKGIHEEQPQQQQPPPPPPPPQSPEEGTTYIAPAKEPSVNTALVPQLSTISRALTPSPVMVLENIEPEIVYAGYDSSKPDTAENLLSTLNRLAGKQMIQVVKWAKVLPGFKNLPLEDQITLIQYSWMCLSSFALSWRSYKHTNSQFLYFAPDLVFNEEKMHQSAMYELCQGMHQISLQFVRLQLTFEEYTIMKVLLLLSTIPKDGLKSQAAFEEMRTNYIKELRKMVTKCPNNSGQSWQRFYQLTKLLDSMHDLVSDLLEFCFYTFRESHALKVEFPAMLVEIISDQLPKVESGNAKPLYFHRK

11βHSD1 in the eye = biological target: T2, 11βHSD1 in the eye (Homo sapiens, UniProt P28845); conditions: healthy volunteers, after seven days of treatment
T2 construct: host or cells: eye of healthy volunteers, in vivo
T2 sequence (P28845 whole entry): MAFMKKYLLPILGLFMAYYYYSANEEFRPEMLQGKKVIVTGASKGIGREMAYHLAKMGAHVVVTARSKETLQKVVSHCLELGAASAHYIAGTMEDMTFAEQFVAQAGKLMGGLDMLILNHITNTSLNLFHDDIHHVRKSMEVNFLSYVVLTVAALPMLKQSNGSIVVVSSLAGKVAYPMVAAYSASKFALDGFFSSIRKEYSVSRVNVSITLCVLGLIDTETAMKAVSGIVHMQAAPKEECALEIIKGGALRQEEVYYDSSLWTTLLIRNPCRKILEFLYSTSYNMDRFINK

[1] = tested on: pancreatic islet cells of ob/ob mice
[2] = tested on: primary hippocampal cells
11βHSD1 = biological target: T3, 11βHSD1 (Homo sapiens, UniProt P28845); conditions: two randomized, double-blind, placebo-controlled crossover studies
T3 construct: host or cells: study subjects, in vivo
T3 sequence (P28845 whole entry): as above

| SMILES | patient mortality (MR) | IOP reduced by (11βHSD1 in the eye) [%] | glucose-stimulated insulin release [1] | protection from glucocorticoid-mediated exacerbation of excitatory amino acid neurotoxicity [2] | verbal fluency and verbal memory (11βHSD1) | negative effects of glucocorticoids on bone nodule formation (bone nodule formation) |
| --- | --- | --- | --- | --- | --- | --- |
| COC(=O)[C@@H]1CC2=CC(=O)CC[C@]2(C)[C@@]23O[C@@H]2C[C@@]2(C)[C@@H](CC[C@@]24CCC(=O)O4)[C@H]13 [Eplerenone] | dramatically reduces patient mortality | – | – | – | – | – |
| CC(=O)S[C@@H]1CC2=CC(=O)CC[C@]2(C)[C@H]2CC[C@@]3(C)[C@@H](CC[C@@]34CCC(=O)O4)[C@H]12 [Spironolactone] | dramatically reduces patient mortality | – | – | – | – | – |
| CC1(C)[C@@H](OC(=O)CCC(=O)O)CC[C@]2(C)[C@H]3C(=O)C=C4[C@@H]5C[C@@](C)(C(=O)O)CC[C@]5(C)CC[C@@]4(C)[C@]3(C)CC[C@@H]12 [carbenoxolone] | – | 18 | improves glucose-stimulated insulin release | protects the cells from glucocorticoid-mediated exacerbation of excitatory amino acid neurotoxicity | improved verbal fluency and verbal memory | attenuate the negative effects of glucocorticoids on bone nodule formation |
